PubChem BioAssay (NCI)
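Cultured in 96-well plates, cells were exposed to test compound for 48 hours across five concentrations. GI50: concentration for 50% inhibition of growth. TGI denotes the concentration required for complete inhibition of growth.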

Legend:
Experiment in all cases: NCI-60 cell line screen, 48 h
A549 NSCLC = test system: A549 NSCLC
NCI-H522 lung = test system: NCI-H522 lung
A498 renal = test system: A498 renal
NCI-H23 lung = test system: NCI-H23 lung
SR leukemia = test system: SR leukemia
K-562 leukemia = test system: K-562 leukemia
786-0 renal = test system: 786-0 renal
HT29 colon = test system: HT29 colon
DU-145 prostate = test system: DU-145 prostate
HCC-2998 colon = test system: HCC-2998 colon
NCI-H226 lung = test system: NCI-H226 lung
SF-268 CNS = test system: SF-268 CNS
CCRF-CEM leukemia = test system: CCRF-CEM leukemia
SF-539 CNS = test system: SF-539 CNS
SK-MEL-2 melanoma = test system: SK-MEL-2 melanoma
NCI/ADR-RES ovarian = test system: NCI/ADR-RES ovarian
HOP-62 NSCLC = test system: HOP-62 NSCLC
MDA-MB-231 breast = test system: MDA-MB-231 breast
SNB-75 CNS = test system: SNB-75 CNS
HL-60(TB) leukemia = test system: HL-60(TB) leukemia
U251 CNS = test system: U251 CNS
PC-3 prostate = test system: PC-3 prostate
EKVX NSCLC = test system: EKVX NSCLC
KM12 colon = test system: KM12 colon
UACC-62 melanoma = test system: UACC-62 melanoma
MDA-MB-435 = test system: MDA-MB-435
SK-MEL-5 melanoma = test system: SK-MEL-5 melanoma
T-47D breast = test system: T-47D breast
ACHN renal = test system: ACHN renal
IGROV1 ovarian = test system: IGROV1 ovarian
HS 578T breast = test system: HS 578T breast
LOX IMVI melanoma = test system: LOX IMVI melanoma
SF-295 CNS = test system: SF-295 CNS
HCT-15 colon = test system: HCT-15 colon
SK-OV-3 ovarian = test system: SK-OV-3 ovarian
RPMI-8226 leukemia = test system: RPMI-8226 leukemia
OVCAR-5 ovarian = test system: OVCAR-5 ovarian
RXF 393 renal = test system: RXF 393 renal
HCT-116 colon = test system: HCT-116 colon
SK-MEL-28 melanoma = test system: SK-MEL-28 melanoma
TK-10 renal = test system: TK-10 renal
OVCAR-8 ovarian = test system: OVCAR-8 ovarian
SW-620 colon = test system: SW-620 colon
BT-549 breast = test system: BT-549 breast
MOLT-4 leukemia = test system: MOLT-4 leukemia
MALME-3M melanoma = test system: MALME-3M melanoma
COLO 205 colon = test system: COLO 205 colon
SNB-19 CNS = test system: SNB-19 CNS
M14 melanoma = test system: M14 melanoma
CAKI-1 renal = test system: CAKI-1 renal
UO-31 renal = test system: UO-31 renal
NCI-H460 lung = test system: NCI-H460 lung
MCF7 breast = test system: MCF7 breast
OVCAR-4 ovarian = test system: OVCAR-4 ovarian
UACC-257 melanoma = test system: UACC-257 melanoma
SN12C renal = test system: SN12C renal

## Nc1ncc(-c2ccc3ncnc(N4CCc5cc(F)c(F)cc54)c3c2)cn1
A549 NSCLC
  GI50: 2.35 µM
  TGI: > 100 µM
NCI-H522 lung
  GI50: 4.94 µM
  TGI: > 100 µM
A498 renal
  GI50: 0.251 µM
  TGI: 2.13 µM
NCI-H23 lung
  GI50: 4.76 µM
  TGI: > 100 µM
SR leukemia
  GI50: 1.82 µM
  TGI: > 100 µM
K-562 leukemia
  GI50: > 100 µM
  TGI: > 100 µM
786-0 renal
  GI50: 3.42 µM
  TGI: > 100 µM
HT29 colon
  GI50: 2.9 µM
  TGI: > 100 µM
DU-145 prostate
  GI50: 2.38 µM
  TGI: > 100 µM
HCC-2998 colon
  GI50: 3.08 µM
  TGI: > 100 µM
NCI-H226 lung
  GI50: 3 µM
  TGI: > 100 µM
SF-268 CNS
  GI50: 1.8 µM
  TGI: > 100 µM
CCRF-CEM leukemia
  GI50: 2.38 µM
  TGI: > 100 µM
SF-539 CNS
  GI50: 2.49 µM
  TGI: > 100 µM
SK-MEL-2 melanoma
  GI50: 2.44 µM
  TGI: 12.3 µM
NCI/ADR-RES ovarian
  GI50: 3.91 µM
  TGI: > 100 µM
HOP-62 NSCLC
  GI50: 1.36 µM
  TGI: > 100 µM
MDA-MB-231 breast
  GI50: 1.87 µM
  TGI: > 100 µM
SNB-75 CNS
  GI50: 0.455 µM
  TGI: 4.03 µM
HL-60(TB) leukemia
  GI50: 5.52 µM
  TGI: > 100 µM
U251 CNS
  GI50: 4.81 µM
  TGI: > 100 µM
PC-3 prostate
  GI50: 1.44 µM
  TGI: > 100 µM
EKVX NSCLC
  GI50: 1.7 µM
  TGI: > 100 µM
KM12 colon
  GI50: 3.92 µM
  TGI: > 100 µM
UACC-62 melanoma
  GI50: 1.37 µM
  TGI: > 100 µM
MDA-MB-435
  GI50: 2.73 µM
  TGI: > 100 µM
SK-MEL-5 melanoma
  GI50: 6.1 µM
  TGI: > 100 µM
T-47D breast
  GI50: 0.858 µM
  TGI: > 100 µM
ACHN renal
  GI50: 1.73 µM
  TGI: > 100 µM
IGROV1 ovarian
  GI50: 0.459 µM
  TGI: 3.34 µM
HS 578T breast
  GI50: 0.751 µM
  TGI: 4.66 µM
LOX IMVI melanoma
  GI50: 1.77 µM
  TGI: 14.1 µM
SF-295 CNS
  GI50: 2.3 µM
  TGI: > 100 µM
HCT-15 colon
  GI50: 2.28 µM
  TGI: > 100 µM
SK-OV-3 ovarian
  GI50: 1.66 µM
  TGI: > 100 µM
RPMI-8226 leukemia
  GI50: 0.559 µM
  TGI: > 100 µM
OVCAR-5 ovarian
  GI50: 1.53 µM
  TGI: > 100 µM
RXF 393 renal
  GI50: 0.381 µM
  TGI: 3.15 µM
HCT-116 colon
  GI50: 4.51 µM
  TGI: > 100 µM
SK-MEL-28 melanoma
  GI50: 3.26 µM
  TGI: > 100 µM
TK-10 renal
  GI50: 0.709 µM
  TGI: > 100 µM
OVCAR-8 ovarian
  GI50: 3.06 µM
  TGI: > 100 µM
SW-620 colon
  GI50: 6.86 µM
  TGI: > 100 µM
BT-549 breast
  GI50: 1.86 µM
  TGI: > 100 µM
MOLT-4 leukemia
  GI50: 3.32 µM
  TGI: > 100 µM
MALME-3M melanoma
  GI50: 1.08 µM
  TGI: > 100 µM
COLO 205 colon
  GI50: 5.77 µM
  TGI: > 100 µM
SNB-19 CNS
  GI50: 5.35 µM
  TGI: > 100 µM
M14 melanoma
  GI50: 3.53 µM
  TGI: > 100 µM
CAKI-1 renal
  GI50: 0.89 µM
  TGI: > 100 µM
UO-31 renal
  GI50: 0.396 µM
  TGI: > 100 µM
NCI-H460 lung
  GI50: 2.11 µM
  TGI: > 100 µM
MCF7 breast
  GI50: 1.23 µM
  TGI: > 100 µM
OVCAR-4 ovarian
  GI50: 1.76 µM
  TGI: > 100 µM
UACC-257 melanoma
  GI50: 7.3 µM
  TGI: > 100 µM
SN12C renal
  GI50: 2.11 µM
  TGI: > 100 µM
